≈ marks a conversion by molar mass, not a printed value.
system: Escherichia coli ATCC 25922; test: Minimal Inhibitory Concentration (MIC) determination, broth microdilution (CLSI M07-A10); format: cell-based; conditions: Escherichia coli, ATCC25922, strain Escherichia coli ATCC 25922, 18-24 hours at 35±2° C., lowest concentration for complete growth inhibition (no visible growth), read-out: Escherichia coli growth inhibition MIC
Protocol: Minimal Inhibitory Concentration (MIC) Determination:
The MIC of antibacterial compounds against multiple species and strains was determined using the broth microdilution method according to M07-A10 Clinical and Laboratory Standards Institute (CLSI) guidelines, using the appropriate broth medium. In short, the compound plates were prepared by dispensing 100 μL of each stock solution in the first well of a 96 well microtiter plate (MTP) at a concentration 100-fold higher than the final concentration desired in broth. Eleven serial 2-fold dilutions of the highest concentration were made in DMSO for new compounds and in water (or appropriate solution) for reference compounds [2]. 1 μL of each well was transferred in a new MTP, which served as the test plate by subsequent inoculation. This bacterial suspension was prepared from strains that were first sub-cultured on agar plates and incubated for 18-24 hours as appropriate. Following incubation, the inoculum was prepared from isolated colonies and adjusted to 0.5 McFarland turbidity standard (1 to 2×10^8 Colony Forming Units (CFU)/mL) in 0.9% saline. The bacterial suspension was then diluted 1:200 in appropriate sterile medium and within 15 minutes 100 μL/well were dispensed. Negative controls (lack of bacterial cells) and growth control wells (lack of compound) were included in all plates. MTPs were incubated for 18-24 hours at 35±2° C. in ambient air. The MIC value of each compound, expressed as μg/mL, was determined as the lowest concentration required for complete growth inhibition (no visible growth). • [1] CLSI (2015) Methods for dilution antimicrobial susceptibility tests for bacteria that grow aerobically; Approved Standard, Tenth Edition. CLSI Document M7-A10 (ISBN 1-56238-987-4). Wayne, PA: Clinical and Laboratory Standards Institute, 19087, USA. • [2] CLSI (2017) Performance Standards for Antimicrobial Susceptibility Testing; Twenty-Fifth Informational Supplement. CLSI Document M100-S27, CLSI, Wayne, Pennsylvania 19087, USA.
Table 1 provides the Minimal Inhibitory Concentrations (MIC) in micrograms per millilitre of the compounds of present invention obtained against the strain Escherichia coli ATCC 25922.

Row | MIC | SMILES
1 | 0.125 µg/mL (≈ 0.233 µM) | CNCc1nc2cc3c(c(F)c2[nH]1)CC(CN1CCC2(CC1)CN(c1cnc4c(n1)NC(=O)CO4)C(=O)O2)C3 (single isomer, unassigned) [Example 59, 6-[8-[[8-Fluoro-2-(methylaminomethyl)-1,5,6,7-tetrahydrocyclopenta[f]benzimidazol-6-yl]methyl]-2-oxo-1-oxa-3,8-diazaspiro[4.5]decan-3-yl]-4H-pyrazino[2,3-b][1,4]oxazin-3-one]
2 | 0.25 µg/mL (≈ 0.428 µM) | CNC(CO)c1nc2c(F)c3c(c(F)c2[nH]1)CC(CN1CCC2(CC1)CN(c1cnc4c(n1)NC(=O)CO4)C(=O)O2)C3 (single isomer, unassigned) [Example 66, 6-[8-[[4,8-Difluoro-2-[2-hydroxy-1-(methylamino)ethyl]-3,5,6,7-tetrahydrocyclopenta[f]benzimidazol-6-yl]methyl]-2-oxo-1-oxa-3,8-diazaspiro[4.5]decan-3-yl]-4H-pyrazino[2,3-b][1,4]oxazin-3-one]
3 | 0.25 µg/mL (≈ 0.465 µM) | CNCc1nc2cc3c(c(F)c2o1)CC(CN1CCC2(CC1)CN(c1cnc4c(n1)NC(=O)CO4)C(=O)O2)C3 (single isomer, unassigned) [Example 95, 6-[8-[[8-fluoro-2-(methylaminomethyl)-6,7-dihydro-5H-cyclopenta[f][1,3]benzoxazol-6-yl]methyl]-2-keto-1-oxa-3,8-diazaspiro[4.5]decan-3-yl]-4H-pyrazino[2,3-b][1,4]oxazin-3-one]
4 | 0.5 µg/mL (≈ 0.863 µM) | O=C1COc2ncc(N3CC4(CCN(CC5Cc6cc7nc(CN8CC(O)C8)oc7c(F)c6C5)CC4)OC3=O)nc2N1 (single isomer, unassigned) [Example 98, 6-[8-[[8-fluoro-2-[(3-hydroxyazetidin-1-yl)methyl]-6,7-dihydro-5H-cyclopenta[f][1,3]benzoxazol-6-yl]methyl]-2-oxo-1-oxa-3,8-diazaspiro[4.5]decan-3-yl]-4H-pyrazino[2,3-b][1,4]oxazin-3-one]
5 | 0.125 µg/mL (≈ 0.227 µM) | O=C1COc2ncc(N3CC4(CCN(CC5Cc6cc7nc(C8CNC8)oc7c(F)c6C5)CC4)OC3=O)nc2N1 (single isomer, unassigned) [Example 100, 6-[2-oxo-8-[[2-(azetidin-3-yl)-8-fluoro-6,7-dihydro-5H-cyclopenta[f][1,3]benzoxazol-6-yl]methyl]-1-oxa-3,8-diazaspiro[4.5]decan-3-yl]-4H-pyrazino[2,3-b][1,4]oxazin-3-one]
6 | 0.125 µg/mL (≈ 0.239 µM) | NCc1nc2cc3c(c(F)c2o1)CC(CN1CCC2(CC1)CN(c1cnc4c(n1)NC(=O)CO4)C(=O)O2)C3 (single isomer, unassigned) [Example 104, 6-[2-oxo-8-[[2-(aminomethyl)-8-fluoro-6,7-dihydro-5H-cyclopenta[f][1,3]benzoxazol-6-yl]methyl]-1-oxa-3,8-diazaspiro[4.5]decan-3-yl]-4H-pyrazino[2,3-b][1,4]oxazin-3-one]
7 | 0.125 µg/mL (≈ 0.227 µM) | O=C1COc2ncc(N3CC4(CCN(CC5Cc6cc7nc([C@@H]8CCN8)oc7c(F)c6C5)CC4)OC3=O)nc2N1 (single isomer, unassigned) [Example 106]

same assay, conditions: strain Escherichia coli ATCC 25922, 18-24 hours at 35±2° C., lowest concentration for complete growth inhibition (no visible growth)

Row | Escherichia coli growth inhibition MIC | SMILES
8 | 0.25 µg/mL | CNC(CO)c1nc2c(F)c3c(c(F)c2[nH]1)CC(CN1CCC2(CC1)CN(c1cnc4c(n1)NC(=O)CO4)C(=O)O2)C3 (single isomer, unassigned) [Example 67, 6-[8-[[4,8-Difluoro-2-[2-hydroxy-1-(methylamino)ethyl]-3,5,6,7-tetrahydrocyclopenta[f]benzimidazol-6-yl]methyl]-2-oxo-1-oxa-3,8-diazaspiro[4.5]decan-3-yl]-4H-pyrazino[2,3-b][1,4]oxazin-3-one]
9 | ≤0.06 µg/mL | NCCn1nnc2cc3c(c(F)c21)CC(CN1CCC2(CC1)CN(c1cnc4c(n1)NC(=O)CO4)C(=O)O2)C3 (single isomer, unassigned) [Example 81, 6-[2-oxo-8-[[1-(2-aminoethyl)-8-fluoro-6,7-dihydro-5H-cyclopenta[f]benzotriazol-6-yl]methyl]-1-oxa-3,8-diazaspiro[4.5]decan-3-yl]-4H-pyrazino[2,3-b][1,4]oxazin-3-one]
10 | 0.125 µg/mL | NCCn1nnc2cc3c(c(F)c21)CC(CN1CCC2(CC1)CN(c1cnc4c(n1)NC(=O)CO4)C(=O)O2)C3 (single isomer, unassigned) [Example 82, 6-[2-oxo-8-[[1-(2-aminoethyl)-8-fluoro-6,7-dihydro-5H-cyclopenta[f]benzotriazol-6-yl]methyl]-1-oxa-3,8-diazaspiro[4.5]decan-3-yl]-4H-pyrazino[2,3-b][1,4]oxazin-3-one]
11 | ≤0.06 µg/mL | CNCCn1nc2cc(F)c3c(c2n1)CC(CN1CCC2(CC1)CN(c1cnc4c(n1)NC(=O)CO4)C(=O)O2)C3 (single isomer, unassigned) [Example 86, 6-[8-[[5-fluoro-2-[2-(methylamino)ethyl]-7.8-dihydro-6H-cyclopenta[e]benzotriazol-7-yl]methyl]-2-oxo-1-oxa-3,8-diazaspiro[4.5]decan-3-yl]-4H-pyrazino[2,3-b][1,4]oxazin-3-one]
12 | 0.125 µg/mL | CNCCn1nc2cc(F)c3c(c2n1)CC(CN1CCC2(CC1)CN(c1cnc4c(n1)NC(=O)CO4)C(=O)O2)C3 (single isomer, unassigned) [Example 87, 6-[8-[[5-fluoro-2-[2-(methylamino)ethyl]-7,8-dihydro-6H-cyclopenta[e]benzotriazol-7-yl]methyl]-2-oxo-1-oxa-3,8-diazaspiro[4.5]decan-3-yl]-4H-pyrazino[2,3-b][1,4]oxazin-3-one]
13 | ≤0.06 µg/mL | C[C@H](N)Cn1nc2cc(F)c3c(c2n1)CC(CN1CCC2(CC1)CN(c1cnc4c(n1)NC(=O)CO4)C(=O)O2)C3 (single isomer, unassigned) [Example 88]
14 | 0.125 µg/mL | C[C@H](N)Cn1nc2cc(F)c3c(c2n1)CC(CN1CCC2(CC1)CN(c1cnc4c(n1)NC(=O)CO4)C(=O)O2)C3 (single isomer, unassigned) [Example 89]
15 | 0.25 µg/mL | CNCc1nc2cc3c(c(F)c2o1)CC(CN1CCC2(CC1)CN(c1cnc4c(n1)NC(=O)CO4)C(=O)O2)C3 (single isomer, unassigned) [Example 94, 6-[8-[[8-fluoro-2-(methylaminomethyl)-6,7-dihydro-5H-cyclopenta[f][1,3]benzoxazol-6-yl]methyl]-2-keto-1-oxa-3,8-diazaspiro[4.5]decan-3-yl]-4H-pyrazino[2,3-b][1,4]oxazin-3-one]
16 | 1 µg/mL | O=C1COc2ncc(N3CC4(CCN(CC5Cc6cc7nc(CN8CC(O)C8)oc7c(F)c6C5)CC4)OC3=O)nc2N1 (single isomer, unassigned) [Example 99, 6-[8-[[8-fluoro-2-[(3-hydroxyazetidin-1-yl)methyl]-6,7-dihydro-5H-cyclopenta[f][1,3]benzoxazol-6-yl]methyl]-2-oxo-1-oxa-3,8-diazaspiro[4.5]decan-3-yl]-4H-pyrazino[2,3-b][1,4]oxazin-3-one]
17 | 0.25 µg/mL | O=C1COc2ncc(N3CC4(CCN(CC5Cc6cc7nc(C8CNC8)oc7c(F)c6C5)CC4)OC3=O)nc2N1 (single isomer, unassigned) [Example 101, 6-[2-oxo-8-[[2-(azetidin-3-yl)-8-fluoro-6,7-dihydro-5H-cyclopenta[f][1,3]benzoxazol-6-yl]methyl]-1-oxa-3,8-diazaspiro[4.5]decan-3-yl]-4H-pyrazino[2,3-b][1,4]oxazin-3-one]
18 | 0.125 µg/mL | NCCc1nc2cc3c(c(F)c2o1)CC(CN1CCC2(CC1)CN(c1cnc4c(n1)NC(=O)CO4)C(=O)O2)C3 (single isomer, unassigned) [Example 102, 6-[8-[[2-(2-aminoethyl)-8-fluoro-6,7-dihydro-5H-cyclopenta[f][1,3]benzoxazol-6-yl]methyl]-2-oxo-1-oxa-3,8-diazaspiro[4.5]decan-3-yl]-4H-pyrazino[2,3-b][1,4]oxazin-3-one]
19 | ≤0.06 µg/mL | NCCc1nc2cc3c(c(F)c2o1)CC(CN1CCC2(CC1)CN(c1cnc4c(n1)NC(=O)CO4)C(=O)O2)C3 (single isomer, unassigned) [Example 103, 6-[8-[[2-(2-aminoethyl)-8-fluoro-6,7-dihydro-5H-cyclopenta[f][1,3]benzoxazol-6-yl]methyl]-2-oxo-1-oxa-3,8-diazaspiro[4.5]decan-3-yl]-4H-pyrazino[2,3-b][1,4]oxazin-3-one]
20 | 0.25 µg/mL | NCc1nc2cc3c(c(F)c2o1)CC(CN1CCC2(CC1)CN(c1cnc4c(n1)NC(=O)CO4)C(=O)O2)C3 (single isomer, unassigned) [Example 105, 6-[2-oxo-8-[[2-(aminomethyl)-8-fluoro-6,7-dihydro-5H-cyclopenta[f][1,3]benzoxazol-6-yl]methyl]-1-oxa-3,8-diazaspiro[4.5]decan-3-yl]-4H-pyrazino[2,3-b][1,4]oxazin-3-one]

Source: patent US20240252506A1 (Hoffmann-La Roche Inc., priority 2021, published 2024)
